Measured values as given in patent publication US5043166A, “Liposome/anthraquinone drug composition and method” (priority 1989, dated 1991).
Read-outs that look alike come from different tables or passages of the source.

Key:
[1] = fluorescence of DXR-Fe(III) complex with SUVs (drug modification); format: physicochemical; details: in presence of SUVs with saturated and/or unsaturated phospholipids
Text: The studies examined the binding of DXR to ferric iron, both in the presence and absence of small unilamellar vesicles (SUVs) formed from the saturated phospholipid dimyristylphosphatidylcholine (DMPC).
One measure of this modification is a change in the 590/560 nm ratio of the fluorescence spectra, which would result from modification of the antracene ring.

[2] = organ distribution of DXR after administration free or in liposomes; format: in vivo
[3] = repeated administration of graded doses of F-DXR and L-DXR; format: in vivo, mice; details: mouse, in vivo, iv, 10 mg/kg, read-out: % Surviving; for survival at 1008 h: day 42, 10 mg/kg
Experimental: (§1) L-DXR was prepared as in Example I, to final DXR concentrations of 0.5, 0.75, and 1.0 mg/ml, corresponding to phospholipid concentrations of 8, 12, and 16 μmole/ml, respectively, and cholesterol concentrations of 3.2, 4.8, and 6.4 μmole/ml, respectively. Free DXR (F-DXR) was prepared in sterile, pyrogen-free physiologic saline solution to final concentrations of 0.5, 0.75, and 1 mg/ml.
(§2) Sabra mice were divided into groups of 15 mice. Three different doses of either F-DXR or L-DXR were tested: 5, 7.5, and 10 mg/kg body weight. Each dose level was tested on 15 male and 15 female mice. Treatment was administered as a bolus injection through the tail vein on days 0, 14, 28, 42, 56, 70, 84, and 98 of the experiment. The pulsed injection scheme was used for the purpose of achieving high cumulative doses, prolonging the period of exposure of the animals to the drug, and mimicking the way DXR is usually administered in clinical practice. In view of the toxicity observed after single injection (Example XI), DXR was administered at a maximum 10 mg/kg dosage so that the occurrence of acute toxicity would be reduced or nil. In order to avoid the overlapping myelosuppression of successive treatment, 14 days were allowed between successive injections, based on previous observations that full regeneration of the activity of myeloid centers in the spleen after treatment with 10 mg/kg of DXR occurred between 7-12 days after drug administration.
(§3) During the course of the experiment, mice were inspected daily and survival curves were recorded. Whenever possible, dead mice were autopsied and a limited sample of organs sent for histopathological examination. Blood counts and body weights were checked weekly. The blood counts were done in a Coulter analyzer with a 20 μl sample obtained from the retro-orbital blood sinuses. One-third of the mice of each group were sacrificed on day 42, after 3 injections. A second third was sacrificed on day 84, after 6 injections. The remaining mice were sacrificed on day 180, 82 days after the 8the and last injection. Before sacrifice, the mice were bled under light ether anesthesia to obtain serum for the biochemical tests. The animals were then dissected and the removed organs, after weighing, were fixed in Bouin's solution and processed for light microscopy examination with hematoxylin-eosin-phosphomolybdic acid: light green stain.
(§4) (c) Effects on Body and Organ Weights. […] The weight measurements were made 42, 84, and 180 days after initial drug injection. The body and organ weights are expressed in percent relative to untreated mice. The percent survivors at each of the three time points is indicated at the top in the table; the dashes (-) indicate no survivors.

Sabra mice [4] = experiment: as above; format: in vivo
Experimental: as §1, §2, §3, §4

[5] = blood biochemistry after repeated administration; format: in vivo, mice; details: mouse, in vivo, iv, female, read-out: % Surviving (Table IX)
Experimental: as §2, §3
(§5) d) Effects on Blood Biochemistry Values. Blood levels of glucose, cholesterol, triglycerides, urea, uric acid, creatine, and total protein were measured at 42, 84, and 180 day time points. Blood enzyme levels of alkaline phosphatase, aspartate aminotransferase, and alanine aminotransferase were also assayed at these time points.
(§6) The most important differences in blood chemistry between F-DXR and L-DXR administration occurred in blood glucose, cholesterol, and triglyceride levels. These differences are seen in Table III below, which gives data on female mice receiving 10 mg/kg of either F-DXR or L-DXR. Glucose, cholesterol, and triglyceride levels are expressed as percent control (untreated) animals, and "nm" means "not measured".

Sabra mice [6] = experiment: blood biochemistry after repeated administration; format: in vivo
Experimental: as §2, §3, §5, §6

human cancer patients [7] = experiment: clinical trials with L-DXR in cancer patients; details: in vivo
Experimental: Eight cancer patients have been treated with the L-DXR composition of Example III. The administration of the drug was done using a 120 ml "Voluset" at a concentration of approximately 0.5 mg/ml in isotonic saline and at a rate of 2-3 ml per min. For intraarterial injections, peristaltic pumps were used, with the rate of infusion being ~1.5 ml/min. […] This was done taking advantage of previously implanted pumps. In both patients, the perfusion of the liver with the pump was previously examined with a Tc-99 labeled macroaggregated albumin scan.

human cancer patients [8] = details: cited from earlier work
[9] = liposome form, animals; cited from earlier work
[10] = system: myeloid centers in the spleen; details: 10 mg/kg of DXR; cited from earlier work
[11] = heart, read-out: DXR level in Heart
[12] = intestine, read-out: DXR level in Intestine
[13] = kidney, read-out: DXR level in Kidney
[14] = liver, read-out: DXR level in Liver
[15] = lungs, read-out: DXR level in Lungs
[16] = skeletal muscle, read-out: DXR level in Skeletal Muscle
[17] = spleen, read-out: DXR level in Spleen

COc1cccc2c1C(=O)c1c(O)c3c(c(O)c1C2=O)C[C@@](O)(C(=O)CO)C[C@@H]3O[C@H]1C[C@H](N)[C@H](O)[C@H](C)O1 [DXR, doxorubicin]
chemical modification with ferric iron [1]: relatively rapid and irreversible chemical modification | concentration at 1 h [2, 11]: 8400 ng/g | concentration at 5 h [2, 11]: 4200 ng/g | concentration at 24 h [2, 11]: 900 ng/g | concentration at 1 h [2, 12]: 5800 ng/g | concentration at 5 h [2, 12]: 3100 ng/g | concentration at 24 h [2, 12]: 1900 ng/g | concentration at 1 h [2, 13]: 31900 ng/g | concentration at 5 h [2, 13]: 19400 ng/g | concentration at 24 h [2, 13]: 6900 ng/g | concentration at 1 h [2, 14]: 30500 ng/g | concentration at 5 h [2, 14]: 16400 ng/g | concentration at 24 h [2, 14]: 3800 ng/g | concentration at 1 h [2, 15]: 13200 ng/g | concentration at 5 h [2, 15]: 8600 ng/g | concentration at 24 h [2, 15]: 3600 ng/g | concentration at 1 h [2, 16]: 2300 ng/g | concentration at 5 h [2, 16]: 2800 ng/g | concentration at 24 h [2, 16]: 590 ng/g | concentration at 1 h [2, 17]: 8100 ng/g | concentration at 5 h [2, 17]: 10700 ng/g | concentration at 24 h [2, 17]: 8800 ng/g | survival at 1008 h ([3]; female): 93% | survival at 2016 h ([3]; female, day 84, 10 mg/kg): 27% | survival at 1008 h ([3]; male): 87% | lower limb weakness (Sabra mice [4]; 10 mg/kg): marked weakness of the lower limbs | organ weights (liver, spleen, kidneys, heart) (Sabra mice [4]; 10 mg/kg): substantial weight reduction | mortality rates, all groups (Sabra mice [4]; 5, 7.5 and 10 mg/kg): Significant mortality rates | white cell count (Sabra mice [4]; 7 and 14 days after each injection): no significant differences between the F-DXR and the L-DXR treated groups | findings in animals dying (Sabra mice [4]; 7.5 and 5 mg/kg): pleural and peritoneal effusions, cardiomegaly, and lung congestion | Body weight, percent relative to untreated mice (Sabra mice [4]; female, day 42, 10 mg/kg): 95% | Heart weight, percent relative to untreated mice (Sabra mice [4]; female, day 42, 10 mg/kg): 97% | Kidneys weight, percent relative to untreated mice (Sabra mice [4]; female, day 42, 10 mg/kg): 78% | Liver weight, percent relative to untreated mice (Sabra mice [4]; female, day 42, 10 mg/kg): 107% | Spleen weight, percent relative to untreated mice (Sabra mice [4]; female, day 42, 10 mg/kg): 78% | Body weight, percent relative to untreated mice (Sabra mice [4]; female, day 84, 10 mg/kg): 84% | Heart weight, percent relative to untreated mice (Sabra mice [4]; female, day 84, 10 mg/kg): 74% | Kidneys weight, percent relative to untreated mice (Sabra mice [4]; female, day 84, 10 mg/kg): 91% | Liver weight, percent relative to untreated mice (Sabra mice [4]; female, day 84, 10 mg/kg): 91% | Spleen weight, percent relative to untreated mice (Sabra mice [4]; female, day 84, 10 mg/kg): 67% | sex difference in toxicity (Sabra mice [4]; high and intermediate dosages): slight trend towards higher toxicity in male as compared to female mice | Body weight, percent relative to untreated mice (Sabra mice [4]; male, day 42, 10 mg/kg): 75% | Heart weight, percent relative to untreated mice (Sabra mice [4]; male, day 42, 10 mg/kg): 82% | Kidneys weight, percent relative to untreated mice (Sabra mice [4]; male, day 42, 10 mg/kg): 76% | Liver weight, percent relative to untreated mice (Sabra mice [4]; male, day 42, 10 mg/kg): 75% | Spleen weight, percent relative to untreated mice (Sabra mice [4]; male, day 42, 10 mg/kg): 71% | survival at 1008 h ([5]; day 42, 10 mg/kg): 93% | survival at 2016 h ([5]; day 84, 10 mg/kg): 27% | blood cholesterol (Sabra mice [6]; 10 mg/kg): hypercholesterolemia | blood glucose (Sabra mice [6]; 10 mg/kg): decreased blood glucose | blood triglyceride (Sabra mice [6]; 10 mg/kg): hyperglyceridemia | creatine levels (Sabra mice [6]; 7.5 and 5 mg/kg, 180 days): increased creatine levels | alanine aminotransferase (Sabra mice [6]; 180 days): a drop in alanine aminotransferase | Cholesterol, percent control (untreated) (Sabra mice [6]; female, day 42, 10 mg/kg): 300 percent control | Glucose, percent control (untreated) (Sabra mice [6]; female, day 42, 10 mg/kg): 97 percent control | Cholesterol, percent control (untreated) (Sabra mice [6]; female, day 84, 10 mg/kg): 383 percent control | Glucose, percent control (untreated) (Sabra mice [6]; female, day 84, 10 mg/kg): 57 percent control | Triglyceride, percent control (untreated) (Sabra mice [6]; female, day 84, 10 mg/kg): 416 percent control | liver enzymes (alkaline phosphatase and aminotransferases) (Sabra mice [6]; mouse, in vivo): Increased liver enzymes | fever (human cancer patients [7]): fever was a constant feature | previous treatment outcome (human cancer patients [8]; patient 5, hepatoma): Previous failure | previous treatment outcome (human cancer patients [8]; patient 8, hepatoma): failure | toxicity as judged by reduced mortality [9]: significantly less toxic, as judged by reduced mortality | full regeneration of myeloid centers in the spleen [10]: 7 to 12 days
